Data taken from patent publication US3994882A, “Nitrofuran derivatives, process for the preparation thereof and compositions containing same as active ingredient” (Kabushiki Kaisha Ueno Seiyaku Oyo Kenkyujo, priority 1974, dated 1976).
Converted amounts (≈) assume the structure as drawn.

Tests used:
[1] = test system: Staphylococcus aureus 72r; test: Curative action in infected mice (Table 4); type: in vivo; conditions: 168 h, mice infected abdominally, oral in 5% gum arabic, observation one week
Description: (§1) Next, in Table 4 are shown the curative actions (ED50 mg/Kg body wt.) and acute toxicities (LD50 mg/kg body wt.) of the typical nitrofuran derivatives of the present invention when used with infected mice.
(§2) Note.- The numerical values in the table denote the amounts per unit body
(§3) weight of the nitrofuran derivatives required for cure when the experimen
(§4) was carried out using mice of body weight of about 20 grams and injecting
(§5) thereinto abdominally the microorganism-containing solutions in amounts o
(§6) 0.2 ml (the microorganism-containing solutions used being those in the
(§7) cases of test microorganisms 1, 3 and 4 in which the microorganism cultur
(§8) liquids were diluted 10^5, 5 and 10^2 times, respectively, and in
(§9) the case of test microorganism 2 that which was concentrated 2 times),
(§10) after which the nitrofuran derivatives suspended in 5% gum arabic were
(§11) forcedly administered orally followed by observation for one week.

[2] = test system: Salmonella typhimium K-52; test: Curative action in infected mice (Table 4); type: in vivo; conditions: K52, 168 h, mice infected abdominally, oral in 5% gum arabic, observation one week
Description: as §1, §2, §3, §4, §5, §6, §7, §8, §9, §10, §11

[3] = test system: Escherichia coli K-74; test: Curative action in infected mice (Table 4); type: in vivo; conditions: K74, 168 h, mice infected abdominally, oral in 5% gum arabic, observation one week
Description: as §1, §2, §3, §4, §5, §6, §7, §8, §9, §10, §11

[4] = test system: Streptococcus hemolyticus A 089; test: Curative action in infected mice (Table 4); type: in vivo; conditions: Streptococcus pyogenes, A089, 168 h, mice infected abdominally, oral in 5% gum arabic, observation one week
Description: as §1, §2, §3, §4, §5, §6, §7, §8, §9, §10, §11

[5] = test system: Salmonella pullorum NIAH 5159; test: Effectiveness in preventing infection by Salmonella pullorum in chicks (Table 6); type: in vivo; conditions: 7 days, chicks with germs isolated / chicks tested
Description: A culture liquid obtained by cultivating Salmonella pullorum NIAH 5159 in a YCCB culture medium for 20 hours at 37° C. was injected into the cloaca of 2-day-old chicks at the rate of 0.2 ml per chick. Nitrofuran derivatives in total amounts indicated below were then mixed with the feed, and the so mixed feed was fed to the chicks for 7 days. The chicks were then sacrificed, and the liver and/or spleen were homogenized, following which the product was cultivated for 48 hours at 37° C. in a YCCB culture medium in customary manner. The expression, "rate of germ isolation" used in the table has the following meaning. For instance, the value 4/10 means the germs were isolated from four out of the ten chicks submitted to the test.

[6] = test system: Erysiperothrix rhusiopatiae Agata; test: Minimum growth inhibiting concentration, microorganisms that infect domestic animals (Table 2); type: cell-based; conditions: TSB-Agar 10% rabbit blood added, 48 hours
Description: (§12) The minimum growth inhibiting concentrations were measured under identical conditions as in the case of Table 1, except that culture media indicated above were used and, in the case of that asterisked, the culture was carried out for 5 days, while the others were cultivated for 48 hours.

[7] = test system: Hemophilus galinalum; test: as above; type: cell-based; conditions: 2 strains, TSB-Agar 10% rabbit blood added, 48 hours
Description: as §12

[8] = test system: Vibrio panulirus Vp-M-1; test: Minimum growth inhibiting concentration, microorganisms that infect fish (Table 3); type: cell-based; conditions: VPM1, 3% NaCl added ordinary agar, 25° C., 24 hours
Description: (§13) The minimum growth inhibiting concentrations were measured under indentical contitions as in the case of Table 1. The culture temperature was 25° C., the culture being carried out for 48 hours in the asterisked case and 24 hours in the other cases.

[9] = test system: Vibrio piscium var. Japonicus; test: as above; type: cell-based; conditions: Vibrio anguillarum, 0.5% NaCl added ordinary agar, 25° C., 24 hours
Description: as §13

[10] = test system: Aeromonas punctata; test: as above; type: cell-based; conditions: Aeromonas caviae, 0.5% NaCl added ordinary agar, 25° C., 24 hours
Description: as §13

[11] = test system: Vibrio anguillarum K-3; test: as above; type: cell-based; conditions: K3, 3% NaCl added ordinary agar, 25° C., 24 hours
Description: as §13

[12] = test system: Vibrio sp. Sp-1; test: as above; type: cell-based; conditions: SP.SP1, 3% NaCl added ordinary agar, 25° C., 24 hours
Description: as §13

[13] = test system: Chondrococcus columnaris Ek-23; test: as above; type: cell-based; conditions: Flavobacterium columnare, EK23, 0.5% NaCl added TSB agar, 25° C., 48 hours (asterisked)
Description: as §13

[14] = test system: Aeromonas salmonicida; test: as above; type: cell-based; conditions: 0.5% NaCl added ordinary agar, 25° C., 24 hours
Description: as §13

[15] = test system: Pasteurella piricida SU; test: as above; type: cell-based; conditions: 2% NaCl added brain-heat infusion agar, 25° C., 24 hours
Description: as §13

[16] = test system: Aeromonas liquefaciens; test: as above; type: cell-based; conditions: Aeromonas hydrophila, 0.5% NaCl added ordinary agar, 25° C., 24 hours
Description: as §13

[17] = Acute toxicity in mice (Table 4); conditions: mouse, in vivo, po
Description: as §1

[18] = test system: Diplococcus pneumoniae DP-1; test: Minimum growth inhibiting concentration (Table 1); type: cell-based; conditions: Streptococcus pneumoniae, DP1, TSBI, pH 7.2, 37° C., 48 hours
Description: (§14) For information, the minimum growth inhibiting concentration is a value
(§15) concerning microorganisms cultivated in TSBI the pH of which was adjusted
(§16) to 7.2, each bacteria being incubated at 37° C. for 48 hours.

[19] = test system: Klebsiella pneumoniae ST-101; test: Minimum growth inhibiting concentration (Table 1); type: cell-based; conditions: ST101, TSBI, pH 7.2, 37° C., 48 hours
Description: as §14, §15, §16

[20] = test system: Salmonella pullorum chuyu 114; test: Minimum growth inhibiting concentration (Table 1); type: cell-based; conditions: Salmonella enterica, TSBI, pH 7.2, 37° C., 48 hours
Description: as §14, §15, §16

[21] = test system: Proteus vulgaris HX-19; test: Minimum growth inhibiting concentration (Table 1); type: cell-based; conditions: HX19, TSBI, pH 7.2, 37° C., 48 hours
Description: as §14, §15, §16

[22] = test system: Pseudomonas aeruguinosa 347; test: Minimum growth inhibiting concentration (Table 1); type: cell-based; conditions: TSBI, pH 7.2, 37° C., 48 hours
Description: as §14, §15, §16

[23] = test system: Staphylococcus aureus 209P; test: Minimum growth inhibiting concentration (Table 1); type: cell-based; conditions: TSBI, pH 7.2, 37° C., 48 hours
Description: as §14, §15, §16

[24] = test system: Escherichia coli O-55; test: Minimum growth inhibiting concentration (Table 1); type: cell-based; conditions: O55, TSBI, pH 7.2, 37° C., 48 hours
Description: as §14, §15, §16

[25] = test system: Salmonella enteritidis 1891; test: Minimum growth inhibiting concentration (Table 1); type: cell-based; conditions: Salmonella enterica, TSBI, pH 7.2, 37° C., 48 hours
Description: as §14, §15, §16

[26] = test system: Bacillus Subtilis PCI219; test: Minimum growth inhibiting concentration (Table 1); type: cell-based; conditions: TSBI, pH 7.2, 37° C., 48 hours
Description: as §14, §15, §16

[27] = test system: Streptococcus hemolyticus A 089; test: Minimum growth inhibiting concentration (Table 1); type: cell-based; conditions: Streptococcus pyogenes, A089, TSBI, pH 7.2, 37° C., 48 hours
Description: as §14, §15, §16

Row | SMILES | ED50 [1] [mg/kg] | ED50 [2] [mg/kg] | ED50 [3] [mg/kg] | ED50 [4] [mg/kg] | Rate of germ isolation ([5]; 50 ppm in feed) | Rate of germ isolation ([5]; 100 ppm in feed) | Rate of germ isolation ([5]; 200 ppm in feed) | Rate of germ isolation ([5]; 400 ppm in feed) | Rate of germ isolation ([5]; 800 ppm in feed) | MIC [6] [µg/mL] | MIC [7] [µg/mL] | MIC [8] [µg/mL] | MIC [9] [µg/mL] | MIC [10] [µg/mL] | MIC [11] [µg/mL] | MIC [12] [µg/mL] | MIC [13] [µg/mL] | MIC [14] [µg/mL] | MIC [15] [µg/mL] | MIC [16] [µg/mL] | further results
1 | O=C(NCC(O)CO)c1ccc(C=Cc2ccc([N+](=O)[O-])o2)cc1 (centres unmarked) [Example 9, 3-Para-[2'-(5"-nitro-2"-furyl)-vinyl]-benzoylamino-1,2-propanediol] | 21 | 100 | 10 | 15 | 4/10 | 4/10 | 3/10 | 2/10 | 1/10 | 0.15 (≈ 0.451 µM) | 0.1 to 1.5 (≈ 0.301 to 4.51 µM) | 0.009 (≈ 0.0271 µM) | < 0.015 | 0.25 (≈ 0.752 µM) | 0.037 (≈ 0.111 µM) | 0.018 (≈ 0.0542 µM) | 0.0037 (≈ 0.0111 µM) | 0.018 (≈ 0.0542 µM) | 0.037 (≈ 0.111 µM) | 0.037 (≈ 0.111 µM) | LD50 [17]: > 2000 mg/kg; MIC [18]: < 0.19 µg/mL; MIC [19]: 6.25 µg/mL (≈ 18.8 µM); MIC [20]: 6.25 µg/mL (≈ 18.8 µM); MIC [21]: 6.25 µg/mL (≈ 18.8 µM); MIC [22]: > 25 µg/mL; MIC [23]: 0.78 µg/mL (≈ 2.35 µM); MIC [24]: 3.13 µg/mL (≈ 9.42 µM); MIC [25]: 1.56 µg/mL (≈ 4.69 µM); MIC [26]: < 0.19 µg/mL; MIC [27]: < 0.19 µg/mL
2 | O=C(NCCO)c1ccc(C=Cc2ccc([N+](=O)[O-])o2)cc1 [Example 1, 2-Para-[2'-(5"-nitro-2"-furyl)-vinyl]-benzoylaminoethanol] | 14 | 75 | 14 | 8 | 4/10 | 4/10 | 3/10 | 2/10 | 0/10 | 0.07 (≈ 0.232 µM) | 0.04 to 1.5 (≈ 0.132 to 4.96 µM) | 0.009 (≈ 0.0298 µM) | < 0.015 | 0.125 (≈ 0.414 µM) | 0.018 (≈ 0.0595 µM) | 0.018 (≈ 0.0595 µM) | 0.0037 (≈ 0.0122 µM) | 0.018 (≈ 0.0595 µM) | 0.037 (≈ 0.122 µM) | 0.062 (≈ 0.205 µM) | LD50 [17]: 1500 mg/kg; MIC [18]: 0.78 µg/mL (≈ 2.58 µM); MIC [19]: 3.13 µg/mL (≈ 10.4 µM); MIC [20]: 3.13 µg/mL (≈ 10.4 µM); MIC [21]: 3.13 µg/mL (≈ 10.4 µM); MIC [22]: 12.5 µg/mL (≈ 41.4 µM); MIC [23]: 0.78 µg/mL (≈ 2.58 µM); MIC [24]: 3.13 µg/mL (≈ 10.4 µM); MIC [25]: 1.56 µg/mL (≈ 5.16 µM); MIC [26]: < 0.19 µg/mL; MIC [27]: < 0.19 µg/mL
